Values after ≈ are worked out from the molar mass of the structure shown. Where two headings read alike, the source gives them in different places.
What was measured:
[1] = test system: BALB/c nude mice; conditions: intraperitoneally for 4 consecutive days, HFA
Method: During the HFA, tumor cells (i.e., SF-295 and HCT-116) were cultivated within biocompatible, semipermeable polyvinylidene fluoride hollow fibers (HFs) and subcutaneously (s.c.) implanted within the dorsal portion of BALB/c nude mice. LASSBio-1586 (5b) and 5-Fluorouracil (5-FU), which was the positive control, were administered intraperitoneally for 4 consecutive days. On day 5, the fibers were removed to quantify the antiproliferative activity of 5b and 5-FU.
A total of 26 female BALB/c nude (nu/nu) mice aging 6–8 weeks were obtained from the animal facilities of State University of São Paulo (USP), Faculty of Medicine, São Paulo (SP), Brazil. They were kept in well-ventilated and sterile cages (Alesco, São Paulo) under standard conditions of light (12 h with alternative day and night cycles) and temperature (22±1°C) and were housed with access to commercial sterile rodent stock diet (Nutrilabor, São Paulo, Brazil) and water ad libitum. As previously mentioned procedures are in accordance with guidelines for the welfare of animals in experimental neoplasia and with national and international standard on the care and use of experimental laboratory animals and were approved by the local Ethical Committee on Animal Research (Process No. 102/2007).
Mice were anaesthetized with ketamine (90 mg/kg) - xylazine (4.5 mg/kg) (Sigma Aldrich). Groups were divided into: a) Negative control (DMSO 5%, n = 6); b) Positive control (5-Flouoruracil, 5-FU, 25 mg/kg/day, n = 7) (Sigma Aldrich); c) LASSBio-1586 (5b; 25 mg/kg/day, n = 7); d) LASSBio-1586 (5b; 50 mg/kg/day, n = 6). A small incision in the neck was incised to permit subcutaneous (s.c.) implantation of the fibers in the dorsal part of the animal. Each animal received 2 fibers at s.c. site. All incisions were sealed with a surgical stapler. The test compounds were administered intraperitoneally during 4 consecutive days. On day 5, fibers were removed to quantify the antiproliferative capacity as described above.

[2] = test system: HCT-116 (colon carcinoma); experiment: Hollow Fiber Assay (HFA), HCT-116 fibers s.c. in mice; format: in vivo, BALB/c nude mice; conditions: 25 mg/kg/day intraperitoneally, 4 days
Method: (§1) Cell culture of SF-295 (glioblastoma) and HCT-116 (colon carcinoma) was performed in RPMI 1640 medium supplemented with 10% fetal bovine serum, 2 mM glutamine, at 37°C with 5% CO2.
(§2) Polyvinylidene fluoride (PVDF) HFs with a 1-mm internal diameter and a molecular weight cutoff point of 500 kDa were used (Spectrum Laboratories, Houston, TX). The fibers were cut into pieces 12–15 cm long, washed 2× with sterile distilled water and kept in sterile conditions.
(§3) Before use, under sterile conditions, the fibers were incubated in complete RPMI with 20% fetal bovine serum (FBS) overnight (packaging time). Cell viability was assessed by trypan blue exclusion assay. Then, a cell suspension of 7.0×10^6 cell/mL at 4°C was injected into the fiber, with the ends thereof immediately heat-sealed. The fibers were cut into 2 cm each, transferred to petri plates and incubated in complete RPMI medium for 24 h prior to implantation in mice. Each cell was injected into one fiber of a different color (HCT-116, yellow fibers; SF-295, blue fibers).
(§4) Each animal received 2 fibers at s.c. site. All incisions were sealed with a surgical stapler.
(§5) Tumor cell proliferation was quantified through the ability of living cells to reduce the yellow dye 3-(4,5-dimethyl-2-thiazolyl)-2,5-diphenyl-2H-tetrazolium bromide (MTT, Sigma Aldrich) to a purple formazan product. For this purpose, the fibers removed from animals were incubated with MTT 1 mg/mL in 6-well plates during 4 h at 37°C, 5% CO2 and 95% humidity. The MTT solution was aspirated; fibers were washed with saline solution containing protamine sulphate 2.5% and incubated in protamine solution overnight at 4°C. Fibers were transferred to 24 well plates, cut into 2 or 3 pieces and put to dry. The formazan was dissolved in […] of DMSO, aliquots (150 uL) were transferred to 96 well plates and absorbance was measured at 595 nm (DTX-880, Beckman Coulter).

[3] = test system: SF-295 (glioblastoma); experiment: Hollow Fiber Assay (HFA), SF-295 fibers s.c. in mice; format: in vivo, BALB/c nude mice; conditions: 25 mg/kg/day intraperitoneally, 4 days
Method: as §1, §2, §3, §4, §5

[4] = test system: MDA-MB435 (melanoma); experiment: In vitro antiproliferative MTT assay, MDA-MB435; format: cell-based; conditions: Homo sapiens, MDA-MB-435
[5] = test system: OVCAR-8 (ovaries adenocarcinoma); experiment: In vitro antiproliferative MTT assay, OVCAR-8; format: cell-based; conditions: for IC50: Homo sapiens, OVCAR-8, Table 2, MTT; for SI Lymphocyte/ OVCAR-8: IC50 for human lymphocytes/IC50 for cancer cell line
Method: (§6) The antiproliferative activity of compounds 5a–r was determined based on an MTT assay and using CA-4 as standard against the tumor cell lines: HL-60 (human leukemia), SF-295 (human glioblastoma), MDA-MB435 (melanoma), PC3M (prostate cancer), OVCAR-8 (ovaries adenocarcinoma), NCI-H258M (pulmonary bronchio-alveolar carcinoma) and HCT-8 (adenocarcinoma ileocecal) (Table 2). To determine the selectivity index of compounds 5a–r, their antiproliferative profile was also evaluated toward human lymphocytes (Table 2).
(§7) Compounds (0.009–5 µg/mL) were tested for cytotoxic activity against selected cancer cell lines: SF-295 (glioblastoma), HCT-8 (colon), MDAMB-435 (melanoma), HL60 (leukemia), PC3M (prostate cancer), OVCAR-8 (ovaries adenocarcinoma) and NCI-H258M (pulmonary bronchio-alveolar carcinoma). All cell lines were kindly obtained from the National Cancer Institute (Bethesda, MD, USA).Tumor cell proliferation was quantified through the ability of living cells to reduce the yellow dye 3-(4,5-dimethyl-2-thiazolyl)-2,5-diphenyl-2H-tetrazolium bromide (MTT, Sigma Aldrich)) to a purple formazan product and absorbance was measured at 595 nm (DTX-880, Beckman Coulter).

[6] = test system: MDA-MB435 (melanoma); experiment: In vitro antiproliferative MTT assay, MDA-MB435; format: cell-based; conditions: IC50 for human lymphocytes/IC50 for cancer cell line
Method: as §6, §7

[7] = test system: NCI-H358M (pulmonary bronchio-alveolar carcinoma); experiment: In vitro antiproliferative MTT assay, NCI-H358M; format: cell-based; conditions: for SI Lymphocyte/ NCI-H358M: IC50 for human lymphocytes/IC50 for cancer cell line; for IC50: NCI-H358M, Table 2, MTT
[8] = test system: HL-60 (human leukemia); experiment: In vitro antiproliferative MTT assay, HL-60; format: cell-based; conditions: for IC50: Homo sapiens, HL-60; for SI Lymphocyte/ HL-60: IC50 for human lymphocytes/IC50 for cancer cell line
Method: as §6, §7

[9] = test system: human lymphocytes; experiment: In vitro antiproliferative assay, human lymphocytes; format: cell-based; conditions: Lymphocyte, Table 2
Method: as §6
To investigate the selective cytotoxic activity of the N-acylhydrazones derivatives (5a–r), their antiproliferative potency was also assessed toward human lymphocytes and the results were compared to the data from CA-4 ([…]). The selectivity index (SI), which was the IC50 for human lymphocytes/IC50 for cancer cell lines after treatment with CA-4 and N-acylhydrazones (5a–r), was calculated, as depicted in Table 3. […] The best comparative selectivity indices (CA-4 vs 5b) were obtained from the SF-295 (SI = 13), MDA-MB435 (SI = 42) and NCI-H258M (SI = 9.5) tumor cell lines, and the worst results were found for OVCAR-8 (SI = 0.5).

[10] = test system: PC3M (prostate cancer); experiment: In vitro antiproliferative MTT assay, PC3M; format: cell-based; conditions: for IC50: Homo sapiens, PC-3M, Table 2, MTT; for SI Lymphocyte/ PC3M: IC50 for human lymphocytes/IC50 for cancer cell line
Method: as §6, §7

[11] = test system: HCT-8 (adenocarcinoma ileocecal); experiment: In vitro antiproliferative MTT assay, HCT-8; format: cell-based; conditions: for IC50: Homo sapiens, HCT-8; for SI Lymphocyte/ HCT-8: IC50 for human lymphocytes/IC50 for cancer cell line
Method: as §6, §7

[12] = Aqueous solubility assay by ultraviolet spectroscopy; format: physicochemical; conditions: water (saturated aqueous solution), thermodynamic from solid, 2 hours at 37°C, read-out: Aq. Solubility
Method: Ultraviolet spectroscopy was performed using Femto spectrophotometer. The wavelength used in solubility assay was determined by the -λ max characteristic of each compound. Spectra were analyzed in Femtoscan software. Mass spectrometry was obtained by positive ionization at Bruker AmaZon SL and data analyzed in Compass 1.3.SR2 software.
The solubility assay was performed considering the absorptivity of compounds in ultraviolet spectroscopy as described by Schneider and coworkers. The assay wavelength was determined by the λ max characteristic of each compound.
Saturated aqueous solutions were prepared (0.01 mg/mL) and were kept under stirring for 2 hours at 37°C. The supernatant was filtered in 0,45 µm filters and transferred to a quartz cuvette (10 mm) to spectra acquisition.
Solubility was determined by linear regression using as graph plots, solutions prepared by dilutions of the original solution in methanol. The data were obtained in triplicates and the mean values were used to the graph plots. The correlation coefficient (R^2) values were between 0.9972 and 0.9999.

[13] = test system: SF-295 (human glioblastoma); experiment: In vitro antiproliferative MTT assay, SF-295; format: cell-based; conditions: for IC50: Homo sapiens, SF-295, read-out: IC50 SF295; for SI Lymphocyte/ SF-295: IC50 for human lymphocytes/IC50 for cancer cell line
Method: as §6, §7

[14] = test system: tumor cell lines; experiment: In vitro antiproliferative MTT assay, tumor cell lines (summary over the panel); format: cell-based; conditions: for cytotoxic activity (in words): HL-60, SF296, HCT-8 and MDA-MB435 tumor cells
Method: as §6, §7

IC50 ([4]; Table 4)	IC50 ([8]; Table 4)	Compound	IC50 ([4]; Table 2, MTT)	IC50 [5]	SI Lymphocyte/ OVCAR-8 [5]	SI Lymphocyte/ MDA-MB345 [6]	SI Lymphocyte/ NCI-H358M [7]	IC50 [7]	melting point	IC50 ([8]; Table 2, MTT)	SI Lymphocyte/ HL-60 [8]	IC50 [9]	IC50 [10]	SI Lymphocyte/ PC3M [10]	IC50 ([11]; Table 2, MTT)	SI Lymphocyte/ HCT-8 [11]	solubility at 2 h [12]	IC50 ([13]; Table 2, MTT)	SI Lymphocyte/ SF-295 [13]	cytotoxic activity (in words) [14]	further results
–	–	O=c1[nH]cc(F)c(=O)[nH]1 [Compound 5-FU, 5-Fluorouracil, reference compound]	–	–	–	–	–	–	–	–	–	–	–	–	–	–	–	–	–	–	deaths of mice during treatment [1]: no deaths occurred; Inhibition (%) HCT-116 [2]: 62.08%; Proliferation (OD595 nm) HCT-116 ([2]; mean ± S.E.M.): 0.59±0.10 OD595 nm; Inhibition (%) SF-295 [3]: 65.40%; Proliferation (OD595 nm) SF-295 ([3]; mean ± S.E.M.): 0.52±0.08 OD595 nm
–	–	COc1cc(C(=O)N/N=C/c2cc(C(C)(C)C)c(O)c(C(C)(C)C)c2)cc(OC)c1OC [Compound 5k, (E)-N′-(3,5-di-tert-butyl-4hydroxybenzylidene)-3,4,5-trimetoxybenzohydrazide]	> 25 µM	> 25 µM	1	1	1	> 25 µM	222 to 224 °C	> 25 µM	1.1	> 56.5 µM	> 25 µM	1	> 25 µM	1	0.0236 µg/mL (≈ 0.0533 µM)	> 25 µM	1	–	–
–	–	COc1cc(C(=O)N/N=C/c2ccc(-c3ccccc3)cc2)cc(OC)c1OC [Compound 5n, (E)-N′-(biphenyl-4-ylmethylene)-3,4,5-trimethoxyibenzohydrazide]	> 25 µM	> 25 µM	1	1.0	1	> 25 µM	187 to 188 °C	> 25 µM	1.0	> 64.1 µM	> 25 µM	1	> 25 µM	1.0	0.0606 µg/mL (≈ 0.155 µM)	> 25 µM	1.0	–	IC50 ([14]; summary in text over the cell lines of Table 2, read-out: IC50 (antiproliferative potency over the tumor cell lines)): > 25 µM
–	–	COc1cc(C(=O)N/N=C/c2ccc(F)cc2)cc(OC)c1OC [Compound 5p, (E)-N′-(4-fluorobenzylidene) - 3,4,5-trimetoxybenzohyidrazide]	1.58 µM	0.96 µM	4.38±0.38	2.34±0.06	1.76±0.04	2.16 µM	181 to 182 °C	1.27 µM	3.11±0.11	3.82 µM	4.48 µM	0.89±0.01	2.02 µM	1.85±0.04	20.9 µg/mL (≈ 62.9 µM)	2.69 µM	1.46±0.06	–	–
–	–	COc1cc(C(=O)N/N=C/c2ccc(Cl)cc2)cc(OC)c1OC [Compound 5q, (E)-N′-(4-chlorobenzylidene)-3,4,5-trimetoxybenzohyidrazide]	0.018 µM	0.024 µM	2.75±0.25	3.07±0.22	0.05±0.005	1.05 µM	187 to 188 °C	0.036 µM	1.85±0.15	0.06 µM	0.0275 µM	2.10±0.10	0.046 µM	1.25±0.05	28.4 µg/mL (≈ 81.4 µM)	0.072 µM	0.85±0.05	–	–
> 25 µM	> 25 µM	O=C(N/N=C/c1ccccc1)c1ccccc1 [Compound 9, (E)-N′-benzylidenebenzohydrazide]	–	–	–	–	–	–	211 to 212 °C	–	–	–	–	–	–	–	–	–	–	loss of cytotoxic activity	IC50 ([11]; Table 4): > 25 µM; IC50 ([13]; Table 4): > 25 µM
> 25 µM	> 25 µM	COc1cc(/C=N/NC(=O)c2ccccc2)cc(OC)c1OC [Compound 10, (E)-N′-(3,4,5-trimethoxybenzylidene)-benzohydrazide]	–	–	–	–	–	–	211 to 212 °C	–	–	–	–	–	–	–	–	–	–	inactive	IC50 ([11]; Table 4): > 25 µM; IC50 ([13]; Table 4): > 25 µM

Compound	IC50 ([4]; Table 4)	IC50 ([8]; Table 4)	IC50 ([4]; Table 2, MTT)	IC50 [5]	SI Lymphocyte/ OVCAR-8 [5]	SI Lymphocyte/ MDA-MB345 [6]	SI Lymphocyte/ NCI-H358M [7]	IC50 [7]	melting point	IC50 ([8]; Table 2, MTT)	SI Lymphocyte/ HL-60 [8]	IC50 [9]	IC50 [10]	SI Lymphocyte/ PC3M [10]	IC50 ([11]; Table 2, MTT)	SI Lymphocyte/ HCT-8 [11]	solubility at 2 h [12]	IC50 ([13]; Table 2, MTT)	SI Lymphocyte/ SF-295 [13]	cytotoxic activity (in words) [14]	further results
COc1cc(NC(=O)N/N=C/c2ccccc2)cc(OC)c1OC [Compound 12, (E)-2-benzylidene-N-(3,4,5-trimetoxyphenyl) hydrazinecarboxamide]	> 25 µM	> 25 µM	–	–	–	–	–	–	217 °C	–	–	–	–	–	–	–	–	–	–	inactive	IC50 ([11]; Table 4): > 25 µM; IC50 ([13]; Table 4): > 25 µM

Source: article PMC3948622, “Docking, Synthesis and Antiproliferative Activity of N-Acylhydrazone Derivatives Designed as Combretastatin A4 Analogues” (PLoS ONE, 2014)
